Laboratory results published in patent publication US7279479B2, “Method for the treatment of heart failure” (Orion Corporation, priority 2001, dated 2007).

Assays:
[1] = tested on: guinea-pigs intoxicated with verapamil; experiment: Survival of anesthetized guinea-pigs intoxicated with verapamil (acute heart failure); assay type: in vivo, guinea-pig (Dunkin Hartley); conditions: verapamil 2.0 mg/kg i.v.; 60 min follow-up; low doses: levosimendan 8.4 μg/kg bolus + 0.14 μg/kg/min, CaCl2 10 mg/kg bolus + 0.5 mg/kg/min; vs saline control
Protocol: At zero time, the intoxication was started with an intravenous bolus injection of verapamil and immediately continued with a 4-min infusion. The total dose of verapamil was 2.0 mg/kg. Control animals were treated with saline.
(§1) 120 spontaneously breathing guinea-pigs (Dunkin Hartley, weighing 470±5 grams, mean±SEM) were anesthetised with isoflurane. The left ventricular and brachial arterial pressures were measured. The carotid artery was surgically exposed in order to introduce a pressure transducer into the left ventricle. A fluid-filled polyethylene cannula was inserted into the brachial artery and connected to another pressure transducer for recording of arterial pressure. The pressure signals were amplified, digitized and sampled.

[2] = tested on: guinea-pigs intoxicated with diltiazem; experiment: Survival of anesthetized guinea-pigs intoxicated with diltiazem (acute heart failure); assay type: in vivo, guinea-pig (Dunkin Hartley); conditions: diltiazem 4.5 mg/kg i.v.
Protocol: At zero time, the intoxication was started with an intravenous bolus injection of diltiazem and immediately continued with a 4-min infusion. The total dose of diltiazem was 4.5 mg/kg. Control animals were treated with saline. All treatments were started one minute after the end of the diltiazem infusion. *p<0.05, **p<0.01, ***p<0.001 vs. control (Kaplan-Meier survival analysis followed by the logrank test).
as §1

Row | SMILES | effect on survival (in words) [1] | effect on survival (in words) ([2]; 60 min follow-up, low doses: levosimendan 8.4 μg/kg bolus + 0.14 μg/kg/min, CaCl2 10 mg/kg bolus + 0.5 mg/kg/min, vs saline control) | survival rate ([2]; 60 minutes after intoxication began, levosimendan 8.4 μg/kg bolus + 0.14 μg/kg/min, control 13%) [%]
1 | [Ca+2].[Cl-].[Cl-] [calcium chloride] | did not affect the survival rate | did not affect the survival rate | –
2 | CC1CC(=O)NN=C1c1ccc(NN=C(C#N)C#N)cc1 (single isomer, unassigned; (-)) [levosimendan, (−)-enantiomer of [[4-(1,4,5,6-tetrahydro-4-methyl-6-oxo-3-pyridazinyl)phenyl]hydrazono]propanedinitrile] | did not improve the survival | – | 63
